The values that follow are results of earlier work, collected in article PMC3230568 (International Journal of Nanomedicine, 2011).

In data set [1] the target is full-length p53 (Homo sapiens, UniProt P04637). Conditions: single-molecule AFS.
The test system of data set [2] is NTD of p53. The conditions noted are these: biological as well as computational studies.
Data set [3] relates to cancer cells. The conditions noted are these: azurin.
For data set [4] the following is noted: azurin.
Data set [5] has as its system p53. The conditions noted are these: azurin.
Data set [6] relates to cancer cells. Conditions: azurin, relative to normal cells.

Chain of full-length p53 (P04637 whole entry): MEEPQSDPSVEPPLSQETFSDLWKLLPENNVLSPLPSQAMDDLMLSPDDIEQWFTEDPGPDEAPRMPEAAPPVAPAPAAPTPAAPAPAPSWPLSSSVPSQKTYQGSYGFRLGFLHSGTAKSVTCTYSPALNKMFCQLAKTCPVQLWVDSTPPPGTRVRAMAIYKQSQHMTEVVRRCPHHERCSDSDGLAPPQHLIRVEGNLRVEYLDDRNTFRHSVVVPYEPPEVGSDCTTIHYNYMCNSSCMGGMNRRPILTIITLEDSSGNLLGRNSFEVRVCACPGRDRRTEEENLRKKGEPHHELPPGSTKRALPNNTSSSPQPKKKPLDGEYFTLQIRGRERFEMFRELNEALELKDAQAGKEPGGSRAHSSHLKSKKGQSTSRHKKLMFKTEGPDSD

For “azurin: copper-containing, electron-transfer protein secreted by Pseudomonas aeruginosa; 128-amino acid”, in data set [1], the “complex formation with full-length p53” value is “a stable complex is formed”. In addition, the “binding to p53 NTD” value in data set [2] is “binds to either the NTD of p53”. For the same substance, the “anticancer activity in vitro” value in data set [3] is given as “significant anticancer activity in vitro”. Also, the “anticancer activity in vivo” value in data set [4] is recorded as “significant anticancer activity”. The “effect on p53 level” value in data set [5] is “stabilization and subsequent increase in intracellular concentration of p53”. Further, the “preferential entry into cancer cells” value in data set [6] was “preferentially enters cancer relative to normal cells”.
